Experimental data: US8859608B2, “Spiro amino compounds suitable for the treatment of inter alia sleep disorders and drug addiction” (Rottapharm Biotech S.R.L., priority 2009, dated 2014)
Where two headings read alike, the source gives them in different places.

Experiments:
[1] = Brain penetration in rats 1 hour after intravenous treatment; assay type: in vivo; conditions: male, Han Wistar, rat, one hour after intravenous administration, 1 mg/kg
Method: (§1) The pharmacokinetics of compound 4 were studied in male Han Wistar rats. The rats were treated intravenously and orally (n=3 for each dose route) with a compound 2 solution at the dose of 1 mg/kg, formulated in Lactic acid 150 mM pH 4.5 in water, 5% DMSO, 10% TWEEN 80. The rats were fitted with a jugular cannula for serial sampling, a full profile was acquired for each rat. Another group of rats (n=3) was treated intravenously and sacrificed after 1 hour harvesting arterial blood and brain to assess brain penetration. Plasma and brain extracts were quantitatively analyzed using a specific and sensitive LC-MS/MS bioanalytical method. Inter-individual variations between the three rats in each group were limited (CV for pharmacokinetic parameters was below 30%).

human OX1 receptor = molecular target: T1, human OX1 receptor (Homo sapiens, UniProt O43613); assay: FLIPR measurement of intracellular calcium, antagonistic activity at OX1; conditions: for Kb: pKb OX1, CHO cells with human recombinant OX1, activated with orexin-A 3 nM, 1 nM-1 μM range, modified Cheng Prusoff
T1 sequence (O43613 1-425): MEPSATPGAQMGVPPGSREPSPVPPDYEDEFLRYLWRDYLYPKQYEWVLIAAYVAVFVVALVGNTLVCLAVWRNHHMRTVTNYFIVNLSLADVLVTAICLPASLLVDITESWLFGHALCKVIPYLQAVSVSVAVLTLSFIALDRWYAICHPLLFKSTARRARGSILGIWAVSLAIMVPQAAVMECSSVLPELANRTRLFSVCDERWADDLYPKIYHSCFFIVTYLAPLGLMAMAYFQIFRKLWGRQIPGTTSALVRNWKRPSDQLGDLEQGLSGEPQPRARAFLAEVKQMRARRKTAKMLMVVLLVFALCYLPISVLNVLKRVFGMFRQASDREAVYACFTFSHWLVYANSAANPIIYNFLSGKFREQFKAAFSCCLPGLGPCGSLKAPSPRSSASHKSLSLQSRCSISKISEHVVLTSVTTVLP
Method: (§2) Thus the plate was loaded with the calcium dye (Fluo-4NW/probenecid in HBSS, Hepes 20 mM, pH 7,4; Invitrogen) at 37° C. for 60 min. Afterward the temperature was equilibrated at 22° C. for 15 min and the [Ca2+]i measured directly on the plate by using a fluorescent plate reader (CeliLux Perkin Elmer).
(§3) After 5 min CHO cells were activated with orexin-A, 3 nM while HEK-293 cells were activated with orexin-B, 10 nM.
(§4) The antagonistic activity has been expressed as pKb (co-logarithm of the apparent dissociation constant calculated by using the modified Cheng Prusoff equation).

[2] = Pharmacokinetics in male Han Wistar rats, intravenous and oral; assay type: in vivo; conditions: 1 mg/kg
Method: as §1

human OX2 receptor = molecular target: T2, human OX2 receptor (Homo sapiens, UniProt O43614); assay: FLIPR measurement of intracellular calcium, antagonistic activity at OX2
T2 sequence (O43614 1-444): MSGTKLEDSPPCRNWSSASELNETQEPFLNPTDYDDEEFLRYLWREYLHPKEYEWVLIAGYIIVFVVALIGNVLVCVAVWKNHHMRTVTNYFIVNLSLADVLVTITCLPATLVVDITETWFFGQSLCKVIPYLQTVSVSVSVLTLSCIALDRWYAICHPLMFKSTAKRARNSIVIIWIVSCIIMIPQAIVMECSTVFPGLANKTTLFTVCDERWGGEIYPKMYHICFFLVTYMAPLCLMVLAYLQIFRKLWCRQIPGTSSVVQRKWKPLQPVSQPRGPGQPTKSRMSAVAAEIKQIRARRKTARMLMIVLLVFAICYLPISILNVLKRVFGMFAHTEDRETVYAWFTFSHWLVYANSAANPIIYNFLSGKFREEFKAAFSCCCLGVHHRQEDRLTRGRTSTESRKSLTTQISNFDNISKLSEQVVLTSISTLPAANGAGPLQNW
Method: as §2, §3, §4

[3] = male, Han Wistar, plasma, rat, intravenous

SMILES | Kb (human OX1 receptor) [nM] | Kb (human OX2 receptor) [nM] | other results
Cc1cccc(NCC2CC3(CCN2C(=O)c2nc(C)sc2-c2ccccc2)CC3)n1 (single isomer, unassigned) [Compound 2, (2-methyl-5-phenylthiazol-4-yl)(5-((6-methylpyridin-2-ylamino)methyl)-6-azaspiro[2.5]octan-6-yl)methanone] | 6.31 | > 10000 | concentration at 1 h ([1]; arterial plasma, read-out: average arterial plasmatic level): 126 ng/mL; Kp at 1 h ([1]; brain/plasma, read-out: Brain/plasma concentrations ratio): 0.66; concentration at 1 h ([1]; brain, read-out: average total brain level): 83 ng/g; selectivity against the OX1 receptor (human OX1 receptor; OX1 versus OX2, from the pKb table): highly selective; clearance as share of rat liver blood flow ([2]; intravenous): 40%; AUC [2, 3]: ~740 ng·h/mL; clearance [2, 3]: ~5.33 mL/min; Vd ([2]; male, Han Wistar, plasma, rat, intravenous, read-out: average volume of distribution (Vss)): 0.33 L; bioavailability ([2]; male, Han Wistar, plasma, rat, oral solution, read-out: absolute oral bioavailability): 50%; AUC ([2]; male, Han Wistar, plasma, rat, oral): ~360 ng·h/mL; oral AUC as share of AUC after intravenous administration ([2]; rat): about 50%; time of maximum concentration ([2]; rat, oral): ≤ 30 min
Cc1nc(C(=O)N2CCC3(CC3)C[C@H]2CNc2cccc(C(F)(F)F)n2)c(-c2ccccc2)s1 [Compound 18, (S)-(2-methyl-5-phenylthiazol-4-yl)(5-(((6-(trifluoromethyl)pyridin-2-yl)amino)methyl)-6-azaspiro[2.5]octan-6-yl)methanone] | 50.1 | > 10000 | 
Cc1cc(C)nc(NC[C@@H]2CC3(CCN2C(=O)c2nc(C)sc2-c2ccccc2)CC3)n1 [Compound 22, (S)-(5-(((4,6-dimethylpyrimidin-2-yl)amino)methyl)-6-azaspiro[2.5]octan-6-yl)(2-methyl-5-phenylthiazol-4-yl)methanone] | 20 | > 10000 | 
Cc1cc(C)nc(NC[C@@H]2CC3(CCN2C(=O)c2ccccc2-c2ccccc2)CC3)n1 [Compound 35, (S)-[1,1′-biphenyl]-2-yl(5-(((4,6-dimethylpyrimidin-2-yl)amino)methyl)-6-azaspiro[2.5]octan-6-yl)methanone] | 5.01 | 79.4 | 
Cc1ccnc(NC[C@@H]2CC3(CCN2C(=O)c2ccccc2-c2ccccc2)CC3)n1 [Compound 39, (S)-[1,1′-biphenyl]-2-yl(5-(((4-methylpyrimidin-2-yl)amino)methyl)-6-azaspiro[2.5]octan-6-yl)methanone] | 12.6 | > 10000 | 
Cc1ccc(-n2nccn2)c(C(=O)N2CC3(CC3)C[C@H]2CNc2ccc(Cl)cn2)c1 [Compound 49, (S)-(6-(((5-chloropyridin-2-yl)amino)methyl)-5-azaspiro[2.4]heptan-5-yl)(5-methyl-2-(2H-1,2,3-triazol-2-yl)phenyl)methanone] | 7.94 | > 10000 | 
Cc1ccc(-n2nccn2)c(C(=O)N2CC3(CC3)C[C@H]2CNc2cccc(C)n2)c1 [Compound 50, (S)-(5-methyl-2-(2H-1,2,3-triazol-2-yl)phenyl)(6-(((6-methylpyridin-2-yl)amino)methyl)-5-azaspiro[2.4]heptan-5-yl)methanone] | 79.4 | > 10000 | 
Cc1ccc(-c2ncccn2)c(C(=O)N2CC3(CC3)C[C@H]2CNc2ccc(Cl)cn2)c1 [Compound 51, (S)-(6-(((5-chloropyridin-2-yl)amino)methyl)-5-azaspiro[2.4]heptan-5-yl)(5-methyl-2-(pyrimidin-2-yl)phenyl)methanone] | 6.31 | > 10000 | 
Cc1cccc(NCC2CCCCN2C(=O)c2ccccc2-c2ccccc2)n1 (centres unmarked) [comparison 1, reference compound] | 126 | 31.6 | 
Cc1nc(C(=O)N2CCCCC2CNc2ccc(Cl)cn2)c(-c2ccccc2)s1 (centres unmarked) [comparison 2, reference compound] | 10 | 25.1 | 
Cc1cccc(NCC2CCCCN2C(=O)c2nc(C)sc2-c2ccccc2)n1 (centres unmarked) [comparison 3, reference compound] | 1 | 3.16 | 
O=C(c1ccccc1OCC1CC1)N1CCCCC1CNc1ccc(Cl)cn1 (centres unmarked) [comparison 4, reference compound] | 3.16 | 158 | 
Cc1cccc(NCC2CCCCN2C(=O)c2nc(C)sc2-c2ccc(F)cc2)n1 (centres unmarked) [comparison 5, reference compound] | 3.16 | 3.98 | 
